Assay results as given in patent US5654427A, “Indolocarbazole derivatives to treat a pathological condition of the prostate” (Kyowa Hakko Kogyo Co., Ltd., priority 1995, dated 1997).
Like-named read-outs stand apart in the source and are kept apart here.

How the values were obtained:
protein kinase A = conditions: background; cited from earlier work
[1] = test system: myosin light-chain kinase; conditions: background; cited from earlier work
phosphorylase kinase = conditions: background; cited from earlier work
protein kinase G = conditions: background; cited from earlier work
DU-145 = test: growth inhibition of DU-145 prostate cancer cells (calcein fluorescence); assay type: cell-based; conditions: Homo sapiens, DU-145, 72 h, read-out: DU-145 C50
Protocol: (§1) Throughout the experiment the Tsu-Pr1 and Du-Pro1 cells were maintained in RPMI 1640 medium (GIBCO) containing 10% fetal bovine serum (Hyclone), 2 mM glutamine, 100 U/ml penicillin, and 100 μg/ml streptomycin. The PC-3 cells were maintained in Ham's F12K medium (Irvine Scientific) containing 10% fetal bovine serum (Hyclone), 2 mM glutamine, 100 U/ml penicillin, and 100 μg/ml streptomycin. All cell lines were maintained at 37° C. in a humidified atmosphere containing 5% CO2. The DU-145 cells were maintained in minimal essential medium (Gibco), containing 10% fetal bovine serum (Hyclone), 2 mM glutamine, and no antibiotics.
(§2) Tests for growth inhibition by the candidate compounds were conducted by the following procedure. In each well of a 96-well plate (Falcon) were placed 2,500 cells in 0.1 ml of medium. The cultures were incubated overnight after which a 0.1 ml aliquot of culture medium was added to each well. […] Other control wells received medium without any K-252a derivative compounds. Incubation was continued for three days. On day three the number of cells in each well was measured using a calcein fluorescence assay (Bozyczko-Coyne et al. J. Neurosci. Meth. 50, 205-216 (1993)).
(§3) Calcein AM (Molecular Probes, Eugene, Oreg.), an analog of the viable dye fluorescein diacetate, is taken up by cells and cleaved intracellularly to fluorescent salts that are retained by intact membranes of viable cells. This method thus provides a reliable and quantitative measurement of cell survival. Calcein AM was diluted 2× in Dulbeccos phosphate buffered saline (D-PBS) to 2× the final assay concentration (6 μM) and 100 μl was added to culture wells containing 100 μl of medium. The plates were then incubated for 1 hour at 37° C. Cells were then washed 4 times with D-PBS to remove excess calcein not taken up by cells. The plate was read using a Millipore plate reading fluorimeter (Cytofluor 2350) at emission=485 nm and excitation=538 nm. After subtraction of blank values (wells containing medium but no cells), relative fluorescent values reflect a quantitative measurement of cell survival.
(§4) The number of cells in the wells containing functional derivatives was compared to the number of cells in the control wells. The concentration which inhibited cell growth by 50% was calculated and is referred to as the "IC50 ".

[2] = body weight and weight of peripheral organs in sexually immature mice; conditions: for Body Weight: Table 4, TEPBS 31.5 ± 0.8; for Heart weight / Testes weight / Lung weight / Stomach weight / Kidney weight / Liver weight: Table 5; for Heart weight: TEPBS 171 ± 8.4; for Testes weight: TEPBS 202 ± 6; for Lung weight: TEPBS 230 ± 15.9; for Stomach weight: TEPBS 294 ± 22; for Kidney weight: TEPBS 576 ± 22; for Liver weight: TEPBS 1937 ± 75
Text: (§5) The following animal model can be used to test the efficacy of a functional derivative for treatment of a proliferative prostate condition. Sexually immature male mice of 15-20 g each (Charles River Laboratories, Raleigh, N.C.) were used in the following in vivo study. The mice were allowed at least 3 days after purchase to acclimate before being used in any experiments.
(§6) Each test group contained 12 mice. […] At the end of the 21 day dosing period the mice were sacrificed and whole body blood, dorsal prostate, ventral prostate, coagulating glands, seminal vesicles, heart, liver, stomach, lung, kidneys and testes were collected separately and weighed.

prostate glands = test: inhibition of prostate growth in sexually immature mice (weight of prostate glands); assay type: in vivo; conditions: for Dorsal Prostate weight: TEPBS 9.8 ± 1.6; for Coagulating Glands weight: TEPBS 25.1 ± 1.6; for Seminal Vesicles weight: TEPBS 75.0 ± 5.0
Text: as §5, §6

protein kinase C = conditions: background; cited from earlier work
Tsu-Pr1 = test: growth inhibition of Tsu-Pr1 prostate cancer cells (calcein fluorescence); assay type: cell-based; conditions: Homo sapiens, TSU-Pr1, 72 h, read-out: Tsu-Pr1 IC50
Protocol: as §1, §2, §3, §4

Du-Pro1 = test: growth inhibition of Du-Pro1 prostate cancer cells (calcein fluorescence); assay type: cell-based; conditions: Homo sapiens, 72 h, read-out: Du-Pro1 IC50
Protocol: as §1, §2, §3, §4

PC-3 = test: growth inhibition of PC-3 prostate cancer cells (calcein fluorescence); assay type: cell-based; conditions: Homo sapiens, PC-3, 72 h, read-out: PC-3 IC50
Protocol: as §1, §2
(§7) Calcein AM (Molecular Probes, Eugene, Oreg.), an analog of the viable dye fluorescein diacetate, is taken up by cells and cleaved intracellularly to fluorescent salts that are retained by intact membranes of viable cells. This method thus provides a reliable and quantitative measurement of cell survival. Calcein AM was diluted 2× in Dulbeccos phosphate buffered saline (D-PBS) to 2× the final assay concentration (6 μM) and 100 μl was added to culture wells containing 100 μl of medium. The plates were then incubated for 1 hour at 37° C. Cells were then washed 4 times with D-PBS to remove excess calcein not taken up by cells. The plate was read using a Millipore plate reading fluorimeter (Cytofluor 2350) at emission=485 nm and excitation=538 nm. After subtraction of blank values (wells containing medium but no cells), relative fluorescent values reflect a quantitative measurement of cell survival. […]

[3] = test system: androgen independent human prostate cancer cell lines Tsu-Pr1, DuPro-1, PC-3 and DU-145; test: growth inhibition of prostate cancer-derived cell lines, overall (calcein fluorescence); assay type: cell-based; conditions: Table 3
Protocol: as §1, §2, §7

trkA = target: T1, trkA (Rattus norvegicus, UniProt P35739); test: inhibition of NGF-stimulated trk autophosphorylation (tyrosine phosphorylation) in PC12 cells, anti-phosphotyrosine Western blot; assay type: cell-based; conditions: 100 nM compound, NGF 50 ng/ml; further: key: +: Inhibited phosphorylation; -: Did not inhibit phosphorylation
T1 construct: are rat pheochromocytoma cells that bear trkA; host or cells: PC12 rat pheochromocytoma cells
T1 sequence (P35739 33-799): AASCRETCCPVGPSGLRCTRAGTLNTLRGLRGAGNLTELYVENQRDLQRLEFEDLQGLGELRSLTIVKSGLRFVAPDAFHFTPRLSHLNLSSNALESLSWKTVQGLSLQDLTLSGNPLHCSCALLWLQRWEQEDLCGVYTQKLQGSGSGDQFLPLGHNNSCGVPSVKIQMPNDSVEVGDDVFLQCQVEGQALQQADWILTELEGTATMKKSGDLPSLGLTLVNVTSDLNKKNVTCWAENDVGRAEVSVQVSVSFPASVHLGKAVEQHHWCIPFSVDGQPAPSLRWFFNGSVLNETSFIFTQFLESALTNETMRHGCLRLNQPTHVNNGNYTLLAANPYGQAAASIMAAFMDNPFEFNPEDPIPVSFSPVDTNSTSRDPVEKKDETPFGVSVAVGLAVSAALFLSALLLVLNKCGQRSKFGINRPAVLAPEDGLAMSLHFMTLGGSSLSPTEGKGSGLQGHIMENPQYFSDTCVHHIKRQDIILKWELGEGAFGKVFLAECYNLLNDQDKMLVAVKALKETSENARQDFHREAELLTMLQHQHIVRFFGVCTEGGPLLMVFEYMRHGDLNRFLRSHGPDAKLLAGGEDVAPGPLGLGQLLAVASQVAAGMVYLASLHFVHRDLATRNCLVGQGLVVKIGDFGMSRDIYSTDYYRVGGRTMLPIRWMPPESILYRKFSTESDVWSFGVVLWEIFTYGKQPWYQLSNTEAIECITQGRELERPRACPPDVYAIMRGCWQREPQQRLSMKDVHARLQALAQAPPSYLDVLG

[4] = Table 4, 1 mg/kg s.c. daily 21 days
[5] = Table 4, 10 mg/kg s.c. daily 21 days

Q: Which results are given for `COC(=O)C1(O)CC2OC1(C)n1c3ccccc3c3c4c(c5c6ccccc6n2c5c31)C(=O)NC4` (stereo not shown) [Compound I-1]?
A: inhibitor of protein kinase A (protein kinase A): inhibitor; inhibitor of myosin light-chain kinase [1]: inhibitor; inhibitor of phosphorylase kinase (phosphorylase kinase): inhibitor; inhibitor of protein kinase G (protein kinase G): inhibitor; IC50 (DU-145): 1200 nM; Body Weight ([2]; 1 mg/kg s.c. daily 21 days): 32.2 ± 0.6 g; Body Weight ([2]; 10 mg/kg s.c. daily 21 days): 30.0 ± 0.6 g; Heart weight ([2]; 1 mg/kg s.c. daily 21 days): 164 ± 6.4 mg; Testes weight ([2]; 1 mg/kg s.c. daily 21 days): 216 ± 6 mg; Lung weight ([2]; 1 mg/kg s.c. daily 21 days): 229 ± 8.02 mg; Stomach weight ([2]; 1 mg/kg s.c. daily 21 days): 288 ± 10 mg; Kidney weight ([2]; 1 mg/kg s.c. daily 21 days): 598 ± 19 mg; Liver weight ([2]; 1 mg/kg s.c. daily 21 days): 1921 ± 81 mg; Heart weight ([2]; 10 mg/kg s.c. daily 21 days): 152 ± 6.58 mg; Testes weight ([2]; 10 mg/kg s.c. daily 21 days): 204 ± 11 mg; Lung weight ([2]; 10 mg/kg s.c. daily 21 days): 263 ± 14.8 mg; Stomach weight ([2]; 10 mg/kg s.c. daily 21 days): 295 ± 30 mg; Kidney weight ([2]; 10 mg/kg s.c. daily 21 days): 550 ± 18 mg; Liver weight ([2]; 10 mg/kg s.c. daily 21 days): 1765 ± 50 mg; weight of the ventral prostates and seminal vesicles, in words (prostate glands; 1 mg/kg): significantly reduced the weight of the ventral prostates and seminal vesicles; effect of the higher dose, in words (prostate glands; 10 mg/kg versus 1 mg/kg): did not produce any greater effect; Dorsal Prostate weight (prostate glands; [4]): 6.2 ± 1.3 mg; Coagulating Glands weight (prostate glands; [4]): 18.2 ± 2.4 mg; Seminal Vesicles weight (prostate glands; [4]): 61.4 ± 4.1 mg; Dorsal Prostate weight (prostate glands; [5]): 6.7 ± 0.7 mg; Coagulating Glands weight (prostate glands; [5]): 18.5 ± 1.4 mg; Seminal Vesicles weight (prostate glands; [5]): 66.4 ± 5.6 mg; Ventral Prostate weight (prostate glands; mouse, in vivo, sc, 1 mg/kg): 7.6 ± 0.9 mg; Ventral Prostate weight (prostate glands; mouse, in vivo, sc, 10 mg/kg): 8.6 ± 0.8 mg; inhibitor of protein kinase C (protein kinase C): inhibitor; IC50 (Tsu-Pr1): 210 nM; IC50 (Du-Pro1): 750 nM; IC50 (PC-3): 3400 nM

Q: What does the source list for `CC12OC(CC1(O)C(=O)NCCO)n1c3ccccc3c3c4c(c5c6ccccc6n2c5c31)CNC4=O` (stereo not shown) [Compound I-12]?
A: potency in inhibiting prostate cell line growth, in words [3]: most potent compounds in inhibiting growth in all four cell lines; IC50 (DU-145; 3 days incubation): 750 nM; Body Weight ([2]; 1 mg/kg s.c. daily 21 days): 32.8 ± 0.4 g; Body Weight ([2]; 10 mg/kg s.c. daily 21 days): 29.5 ± 1.0 g; Heart weight ([2]; 1 mg/kg s.c. daily 21 days): 179 ± 8.78 mg; Testes weight ([2]; 1 mg/kg s.c. daily 21 days): 191 ± 12 mg; Lung weight ([2]; 1 mg/kg s.c. daily 21 days): 244 ± 15.1 mg; Stomach weight ([2]; 1 mg/kg s.c. daily 21 days): 329 ± 28 mg; Kidney weight ([2]; 1 mg/kg s.c. daily 21 days): 591 ± 16 mg; Liver weight ([2]; 1 mg/kg s.c. daily 21 days): 2120 ± 54 mg; Heart weight ([2]; 10 mg/kg s.c. daily 21 days): 152 ± 9.60 mg; Testes weight ([2]; 10 mg/kg s.c. daily 21 days): 187 ± 5 mg; Lung weight ([2]; 10 mg/kg s.c. daily 21 days): 253 ± 20.9 mg; Stomach weight ([2]; 10 mg/kg s.c. daily 21 days): 270 ± 19 mg; Kidney weight ([2]; 10 mg/kg s.c. daily 21 days): 552 ± 29 mg; Liver weight ([2]; 10 mg/kg s.c. daily 21 days): 1886 ± 84 mg; weight of the ventral prostates and seminal vesicles, in words (prostate glands; 1 mg/kg): reduced the weight of the ventral prostates and seminal vesicles; weight of the dorsal prostate, in words (prostate glands; 1 mg/kg and 10 mg/kg): only reduced after treatment with 1 mg/kg; weight of the ventral prostates and seminal vesicles, in words (prostate glands; 10 mg/kg): reduced the weight of the ventral prostates and seminal vesicles; Dorsal Prostate weight (prostate glands; [4]): 4.7 ± 0.4 mg; Ventral Prostate weight (prostate glands; Table 4, 1 mg/kg s.c. daily 21 days, TEPBS 11.3 ± 0.6): 6.2 ± 0.4 mg; Coagulating Glands weight (prostate glands; [4]): 18.0 ± 2.4 mg; Seminal Vesicles weight (prostate glands; [4]): 54.3 ± 1.5 mg; Dorsal Prostate weight (prostate glands; [5]): 8.6 ± 1.1 mg; Ventral Prostate weight (prostate glands; Table 4, 10 mg/kg s.c. daily 21 days, TEPBS 11.3 ± 0.6): 8.4 ± 0.8 mg; Coagulating Glands weight (prostate glands; [5]): 17.6 ± 1.0 mg; Seminal Vesicles weight (prostate glands; [5]): 55.3 ± 2.2 mg; IC50 (Tsu-Pr1; 3 days incubation): 38 nM; IC50 (Du-Pro1; 3 days incubation): 310 nM; trk 100 nM (inhibition of phosphorylation) (trkA): +; IC50 (PC-3; 3 days incubation): 690 nM
